Data from patent US20240317744A1, “Bicyclic Ureas As Kinase Inhibitors” (Incyte Corporation, priority 2023, published 2024).

How the values were obtained:
[1] = target: T1, pseudo-kinase domain (JH2, amino-acids 536-812) of human Wild Type JAK2 (Homo sapiens, UniProt O60674, F794H/W659A/W777A); assay: JAK2 LanthaScreen JH2-WT Binding Assay; settings: JAK2 JH2-WT 0.145 nM, 50 nM tracer, 1 hour at 25° C.; read-out: JH2 BIND WT
T1 construct: pseudo-kinase domain (JH2, amino-acids 536-812 with 3 surface mutations W659A, W777A, F794H); His (C); purchased BPS Bioscience 79463; host or cells: baculovirus expression system
How it was run: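 Compounds, serially diluted, were mixed with 0.145 nM JH2 domain, 50 nM tracer and 0.25 nM streptavidin-Tb cryptate, then incubated 1 hour at 25° C before LanthaScreen reading. Wells containing 2 mM ATP defined non-specific binding. Four-parameter dose-response curves gave IC50.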

[2] = target: T2, pseudo-kinase domain (JH2, amino-acids 536-812) of human V617F mutant JAK2 (Homo sapiens, UniProt O60674, F794H/V617F/W659A/W777A); assay: JAK2 LanthaScreen JH2-V617F Binding Assay; settings: JAK2 JH2-V617F 0.26 nM, 50 nM tracer, 1 hour at 25° C.; read-out: JH2 BIND V617F
T2 construct: pseudo-kinase domain (JH2, amino-acids 536-812 with 3 surface mutations W659A, W777A, F794H); His (C); purchased BPS Bioscience 79498; host or cells: baculovirus expression system
How it was run: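 Biotinylated His-Avi-tagged JH2 protein was baculovirus-expressed and used at 0.26 nM. It was incubated with compound, 50 nM fluorescent JH2 tracer and 0.25 nM streptavidin-Tb for 1 h at 25 °C in pH 7.5 Tris buffer with MgCl2, BSA, DTT. Non-specific binding was defined with 2 mM ATP. IC50 came from four-parameter fits of TR-FRET signal.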

[3] = target: catalytic domain (JH1, amino acids 808-1132) of human JAK2 (Homo sapiens, UniProt O60674); assay: JAK2 HTRF Enzyme Activity Assay; format: biochemical; settings: ATP 30 µM, 60 minutes at 25° C.; read-out: V617F ENZ 30 UM
[4] = target: T3, catalytic domain (JH1, amino acids 826-1132) of human JAK2 (Homo sapiens, UniProt O60674); assay: JAK2 LanthaScreen JH1 Binding Assay; settings: JAK2 JH1 1.5 nM, 50 nM tracer, 2 hours at 25° C.; read-out: JH1 BIND
T3 construct: catalytic domain (JH1, amino acids 826-1132) of human JAK2; FLAG (N); biotin (biotinylated); purchased Carna Biosciences 08-445-20N; host or cells: baculovirus expression system
How it was run: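 FLAG-tagged, biotinylated JAK2 JH1 (aa 826-1132, baculovirus-expressed; 1.5 nM) incubated 2 h at 25° C with compounds, 50 nM fluorescent tracer and 0.5 nM Streptavidin-Tb in Tris pH 7.5 buffer with MgCl2, Brij-35, BSA, EGTA, glycerol, DTT. Nonspecific binding defined with 2 mM ATP; TR-FRET IC50 from four-parameter fit.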

T3 sequence (O60674 826-1132): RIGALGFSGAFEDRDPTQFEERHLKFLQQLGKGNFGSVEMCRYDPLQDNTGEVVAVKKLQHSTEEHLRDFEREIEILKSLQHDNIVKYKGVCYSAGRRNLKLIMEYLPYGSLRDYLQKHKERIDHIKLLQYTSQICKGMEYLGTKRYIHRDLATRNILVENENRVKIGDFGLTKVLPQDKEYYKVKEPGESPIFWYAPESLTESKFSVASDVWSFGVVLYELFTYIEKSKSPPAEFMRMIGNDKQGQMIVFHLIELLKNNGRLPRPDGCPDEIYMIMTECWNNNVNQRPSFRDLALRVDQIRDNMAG
T1 sequence (O60674 536-812 W659A/W777A/F794H): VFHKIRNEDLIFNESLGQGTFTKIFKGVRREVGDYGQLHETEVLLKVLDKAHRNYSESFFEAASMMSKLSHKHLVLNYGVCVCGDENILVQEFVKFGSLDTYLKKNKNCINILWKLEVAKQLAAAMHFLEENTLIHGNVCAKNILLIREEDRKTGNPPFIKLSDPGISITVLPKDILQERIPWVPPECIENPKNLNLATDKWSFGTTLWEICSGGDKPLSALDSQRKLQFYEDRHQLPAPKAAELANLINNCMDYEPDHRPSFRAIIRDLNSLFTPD
Chain of catalytic domain (JH1, amino acids 808-1132) of human JAK2 (O60674 808-1132 limits assumed): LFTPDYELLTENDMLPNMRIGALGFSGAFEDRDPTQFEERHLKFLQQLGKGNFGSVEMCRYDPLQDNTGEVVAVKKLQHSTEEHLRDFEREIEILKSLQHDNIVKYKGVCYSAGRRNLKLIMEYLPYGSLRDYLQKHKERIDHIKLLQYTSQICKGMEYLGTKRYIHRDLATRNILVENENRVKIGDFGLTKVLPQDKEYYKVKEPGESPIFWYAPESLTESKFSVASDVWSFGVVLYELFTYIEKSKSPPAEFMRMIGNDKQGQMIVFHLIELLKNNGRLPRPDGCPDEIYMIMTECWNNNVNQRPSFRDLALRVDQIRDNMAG
T2 sequence (O60674 536-812 V617F/W659A/W777A/F794H): as the sequence (O60674 536-812 W659A/W777A/F794H) above, with V82F counted along it

Row | Structure (SMILES) | IC50 [1] [nM] | IC50 [2] [nM] | IC50 [3] [nM] | IC50 [4] [nM]
1 | COC(=O)N[C@@H]1CC[C@@H](n2c(=O)n(C)c3cnc(Nc4cc(NC(=O)OC5CC5)cc(OC)c4)cc32)C1 [Example 55, Methyl ((1R,3R)-3-(6-((3-((cyclopropoxycarbonyl)amino)-5-methoxyphenyl)amino)-3-methyl-2-oxo-2,3-dihydro-1H-imidazo[4,5-c]pyridin-1-yl)cyclopentyl)carbamate] | ≤ 10 | 10 to 100 | > 1000 | > 1000
2 | COC(=O)N[C@@H]1CC[C@@H](n2c(=O)n(C)c3cnc(Nc4cc(NC(=O)OC5CCC5)cc(-c5cnn(C)c5)c4)cc32)C1 [Example 56, Methyl ((1R,3R)-3-(6-((3-((cyclobutoxycarbonyl)amino)-5-(1-methyl-1H-pyrazol-4-yl)phenyl)amino)-3-methyl-2-oxo-2,3-dihydro-1H-imidazo[4,5-c]pyridin-1-yl)cyclopentyl)carbamate] | ≤ 10 | ≤ 10 | > 1000 | > 1000
3 | COC(=O)N[C@@H]1CC[C@@H](n2c(=O)n(C)c3cnc(Nc4cc(NC(=O)C5CC5)cc(-c5cnn(C)c5)c4)cc32)C1 [Example 57, Methyl ((1R,3R)-3-(6-((3-(cyclopropanecarboxamido)-5-(1-methyl-1H-pyrazol-4-yl)phenyl)amino)-3-methyl-2-oxo-2,3-dihydro-1H-imidazo[4,5-c]pyridin-1-yl)cyclopentyl)carbamate] | ≤ 10 | ≤ 10 | > 1000 | > 1000
4 | [2H]C([2H])([2H])n1c(=O)n([C@@H]2CC[C@@H](NC(=O)OC)C2)c2cc(Nc3ccc4cccc(C5(C)CC5)c4n3)ncc21 [Example 58, Methyl ((1R,3R)-3-(3-(methyl-d3)-6-((8-(1-methylcyclopropyl)quinolin-2-yl)amino)-2-oxo-2,3-dihydro-1H-imidazo[4,5-c]pyridin-1-yl)cyclopentyl)carbamate] | ≤ 10 | ≤ 10 | > 1000 | > 1000
5 | [2H]C([2H])([2H])n1cc(-c2cnc3ccc(Nc4cc5c(cn4)n(C)c(=O)n5[C@@H]4CC[C@@H](NC(=O)OC)C4)nn23)c(F)n1 [Example 59, Methyl ((1R,3R)-3-(6-((3-(3-fluoro-1-(methyl-d3)-1H-pyrazol-4-yl)imidazo[1,2-b]pyridazin-6-yl)amino)-3-methyl-2-oxo-2,3-dihydro-1H-imidazo[4,5-c]pyridin-1-yl)cyclopentyl)carbamate] | ≤ 10 | ≤ 10 | > 1000 | > 1000
6 | Cn1cc(-c2cc(NC(=O)OC3CCC3)cc(Nc3cc4c(cn3)n(C)c(=O)n4C3CCCC3)c2)cn1 [Example 60, Cyclobutyl (3-((1-cyclopentyl-3-methyl-2-oxo-2,3-dihydro-1H-imidazo[4,5-c]pyridin-6-yl)amino)-5-(1-methyl-1H-pyrazol-4-yl)phenyl)carbamate] | 10 to 100 | 10 to 100 | > 1000 | > 1000
7 | Cn1c(=O)n(C2CCCC2)c2cc(Nc3cc(NC(=O)OC4CCC4)cc(-c4cnn(C5CC5)c4)c3)ncc21 [Example 61, Cyclobutyl (3-((1-cyclopentyl-3-methyl-2-oxo-2,3-dihydro-1H-imidazo[4,5-c]pyridin-6-yl)amino)-5-(1-cyclopropyl-1H-pyrazol-4-yl)phenyl)carbamate] | 10 to 100 | 100 to 500 | > 1000 | > 1000
8 | Cn1c(=O)n(C2CCOC2)c2cc(Nc3cc(NC(=O)OC4CCC4)cc(-c4cnn(C5CC5)c4)c3)ncc21 (stereo not drawn) [Example 62, Cyclobutyl (3-(1-cyclopropyl-1H-pyrazol-4-yl)-5-((3-methyl-2-oxo-1-(tetrahydrofuran-3-yl)-2,3-dihydro-1H-imidazo[4,5-c]pyridin-6-yl)amino)phenyl)carbamate] | 100 to 500 | 100 to 500 | > 1000 | > 1000
9 | [2H]C([2H])([2H])n1c(=O)n([C@@H]2CC[C@@H](NC(=O)OC)C2)c2cc(Nc3cc(COC4CCC4)cc(-c4ccc5c(c4)OCCO5)n3)ncc21 [Example 63, Methyl ((1R,3R)-3-(6-((4-(cyclobutoxymethyl)-6-(2,3-dihydrobenzo[b][1,4]dioxin-6-yl)pyridin-2-yl)amino)-3-(methyl-d3)-2-oxo-2,3-dihydro-1H-imidazo[4,5-c]pyridin-1-yl)cyclopentyl)carbamate] | ≤ 10 | 10 to 100 | > 1000 | > 1000
10 | COC(=O)N[C@@H]1CC[C@@H](n2c(=O)n(C)c3cnc(Nc4cccc(N5CCC(N)C5)n4)cc32)C1 (stereo partly drawn) [Example 64, Methyl ((1R,3R)-3-(6-((6-(3-aminopyrrolidin-1-yl)pyridin-2-yl)amino)-3-methyl-2-oxo-2,3-dihydro-1H-imidazo[4,5-c]pyridin-1-yl)cyclopentyl)carbamate] | 10 to 100 | 10 to 100 | > 1000 | > 1000
11 | [2H]C([2H])([2H])n1c(=O)n([C@@H]2CC[C@@H](NC(=O)OC)C2)c2cc(Nc3cc(CNC4CCCC4)cc(-c4ccc5c(c4)OCCO5)n3)ncc21 [Example 65, Methyl ((1R,3R)-3-(6-((4-((cyclopentylamino)methyl)-6-(2,3-dihydrobenzo[b][1,4]dioxin-6-yl)pyridin-2-yl)amino)-3-(methyl-d3)-2-oxo-2,3-dihydro-1H-imidazo[4,5-c]pyridin-1-yl)cyclopentyl)carbamate] | ≤ 10 | ≤ 10 | > 1000 | > 1000
12 | COC(=O)N[C@@H]1CC[C@@H](n2c(=O)n(C)c3cnc(Nc4ccnc(N5CCCCC5)n4)cc32)C1 [Example 66, Methyl ((1R,3R)-3-(3-methyl-2-oxo-6-((2-(piperidin-1-yl)pyrimidin-4-yl)amino)-2,3-dihydro-1H-imidazo[4,5-c]pyridin-1-yl)cyclopentyl)carbamate] | ≤ 10 | 10 to 100 | > 1000 | > 1000
13 | COC(=O)N[C@@H]1CC[C@@H](n2c(=O)n(C)c3cnc(Nc4cc(C)cc(-c5ccnc(OC)c5)n4)cc32)C1 [Example 67, Methyl ((1R,3R)-3-(6-((2′-methoxy-4-methyl-[2,4′-bipyridin]-6-yl)amino)-3-methyl-2-oxo-2,3-dihydro-1H-imidazo[4,5-c]pyridin-1-yl)cyclopentyl)carbamate] | ≤ 10 | ≤ 10 | > 1000 | > 1000
14 | COC(=O)N[C@@H]1CC[C@@H](n2c(=O)n(C)c3cnc(Nc4nc(-c5ccncc5)cs4)cc32)C1 [Example 68, Methyl ((1R,3R)-3-(3-methyl-2-oxo-6-((4-(pyridin-4-yl)thiazol-2-yl)amino)-2,3-dihydro-1H-imidazo[4,5-c]pyridin-1-yl)cyclopentyl)carbamate] | 500 to 1000 | 500 to 1000 | > 1000 | > 1000
15 | COC(=O)N[C@@H]1CC[C@@H](n2c(=O)n(C)c3cnc(Nc4ccc(F)c(-c5ccc(C(F)(F)F)nc5)n4)cc32)C1 [Example 69, Methyl ((1R,3R)-3-(6-((3-fluoro-6′-(trifluoromethyl)-[2,3′-bipyridin]-6-yl)amino)-3-methyl-2-oxo-2,3-dihydro-1H-imidazo[4,5-c]pyridin-1-yl)cyclopentyl)carbamate] | ≤ 10 | ≤ 10 | > 1000 | > 1000
